The values that follow come from patent US7312210B2, “Pyrrolo[2,1-c][1,4]benzodiazepine compounds and processes for the preparation thereof” (Council of Scientific and Industrial Research, priority 2005, dated 2007).

One assay has as its system Breast cancer cell lines. In words: NCI in vitro cytotoxicity screen (SRB assay), breast cell lines. The format is cell-based, human. The conditions noted are these: average of six to nine different cancer cell lines, 48 h exposure. As to the method:
(§1) Biological Activity: In vitro biological activity studies were carried out at the National Cancer Institute (USA).
(§2) Cytotoxicity: The compounds 7-methoxy-8-{5-[4-(2-oxo-2H-4-chromenyl)piperazino]pentyl}-oxy-(11aS)-1,2,3,11a-5H-pyrrolo[2,1-c][1,4]benzodiazepin-5-one, 7-methoxy-8-{3-[4-(7-methoxy-8-methyl-2-oxo-2H-4-chromenyl)piperazino]propyl}-oxy-(11aS)-1,2,3,11a-5H-pyrrolo[2,1-c][1,4]benzodiazepin-5-one and 7-methoxy-8-{5-[4-(7-methoxy-8-methyl-2-oxo-2H-4-chromenyl)piperazino]pentyl}-oxy-(11aS)-1,2,3,11a-5H-pyrrolo[2,1-c][1,4]benzodiazepin-5-one were evaluated for in vitro anticancer activity against sixty human tumor cells derived from […] (leukemia, non-small-cell lung, colon, CNS, melanoma, ovarian, prostate, and breast cancer) as shown in (Table 2). For each compound, dose response curves for each cell line were measured at a minimum of five concentrations at 10 fold dilutions. A protocol of 48 h continuous drug exposure was used and a sulforhodamine B (SRB) protein assay was used to estimate cell viability or growth. The concentration causing 50% cell growth inhibition (GI50), total cell growth inhibition (TGI 0% growth) and 50% cell death (LC50, −50% growth) compared with the control was calculated.
(§3) Each cancer type represents the average of six to nine different cancer cell lines.

The subject of another assay is Colon cancer cell lines. In words: NCI in vitro cytotoxicity screen (SRB assay), colon cell lines. The format is cell-based, human. The conditions noted are these: average of six to nine different cancer cell lines, 48 h exposure. As to the method: as §1, §2, §3
In general terms: Sulforhodamine B stains cellular protein and so reports cell mass.

Assay [1] deals with Non-small-cell-lung cancer cell lines. In words: NCI in vitro cytotoxicity screen (SRB assay), non-small-cell-lung cell lines. As to conditions: average of six to nine different cancer cell lines, 48 h exposure. The format is cell-based, human. As to the method: as §1, §2, §3
Assay [2] deals with Ovarian cancer cell lines. The assay can be described thus: NCI in vitro cytotoxicity screen (SRB assay), ovarian cell lines. The format is cell-based, human. As to conditions: average of six to nine different cancer cell lines, 48 h exposure. As for the experimental part:
as §1, §2, §3

Assay [3] deals with sixty human tumor cells derived from nine cancer types. In words: NCI in vitro cytotoxicity screen (SRB assay), mean graph midpoints over all cell lines. The format is cell-based. As to conditions: for Log10LC50 mean graph midpoint (MG_MID): 50% cell death (−50% growth); for Log10LC50 mean graph midpoint (MG_MID) / Log10GI50 mean graph midpoint (MG_MID) / Log10TGI mean graph midpoint (MG_MID): 48 h continuous drug exposure, SRB protein assay, human tumor cell lines; for Log10GI50 mean graph midpoint (MG_MID): 50% cell growth inhibition; for Log10TGI mean graph midpoint (MG_MID): total cell growth inhibition (0% growth). As for the experimental part: as §1, §2

The test system of assay [4] is Prostate cancer cell lines. The assay can be described thus: NCI in vitro cytotoxicity screen (SRB assay), prostate cell lines. The format is cell-based, human. The conditions noted are these: average of six to nine different cancer cell lines, 48 h exposure. As for the experimental part:
as §1, §2, §3

The test system of a further assay is Renal cancer cell lines. In words: NCI in vitro cytotoxicity screen (SRB assay), renal cell lines. As to conditions: average of six to nine different cancer cell lines, 48 h exposure. The format is cell-based, human. As to the method:
as §1, §2, §3

The subject of assay [5] is Melanoma cancer cell lines. The assay can be described thus: NCI in vitro cytotoxicity screen (SRB assay), melanoma cell lines. The format is cell-based, human. As to conditions: average of six to nine different cancer cell lines, 48 h exposure. As to the method:
as §1, §2, §3

The test system of a further assay is CNS cancer cell lines. The assay can be described thus: NCI in vitro cytotoxicity screen (SRB assay), CNS cell lines. The conditions noted are these: average of six to nine different cancer cell lines, 48 h exposure. The format is cell-based, human. As to the method:
as §1, §2, §3

Assay [6] concerns Leukemia cancer cell lines. The assay can be described thus: NCI in vitro cytotoxicity screen (SRB assay), leukemia cell lines. The conditions noted are these: average of six to nine different cancer cell lines, 48 h exposure. The format is cell-based, human. As for the experimental part: as §1, §2, §3

Regarding `COc1cc2c(cc1OCCCCCN1CCN(c3cc(=O)oc4ccccc34)CC1)N=C[C@@H]1CCCN1C2=O` [Compound 5c, 7-Methoxy-8-{5-[4-(2-oxo-2H-4-chromenyl)piperazino]pentyl}-oxy-(11aS)-1,2,3,11a-5H-pyrrolo[2,1-c][1,4]benzodiazepin-5-one], the “Log10LC50 concentration in mol/L causing 50% lethality” value with Breast cancer cell lines is reported as −4.71 mol/L; with Colon cancer cell lines, −5.24 mol/L; in assay [1], −4.92 mol/L; in assay [2] it was −5.44 mol/L; in assay [4] it was −4.53 mol/L; in the assay on Renal cancer cell lines it was −5.26 mol/L. For the same compound, the “Log10LC50 concentration in mol/L causing 50% lethality” value was −5.68 mol/L in [5], −4.70 mol/L with CNS cancer cell lines and −5.03 mol/L in assay [6]. For the same compound, in [3], the “Log10LC50 mean graph midpoint (MG_MID)” value is recorded as −4.99. In addition, the “Log10GI50 mean graph midpoint (MG_MID)” value in assay [3] was −7.68. Moreover, in assay [3], the “Log10TGI mean graph midpoint (MG_MID)” value is recorded as −6.66. Besides, the “mean graph pattern: profile of activity and selectivity” value in assay [3] (various cell lines) is “interesting profile of activity and selectivity for various cell lines”.

Consider `COc1cc2c(cc1OCCCN1CCN(c3cc(=O)oc4c(C)c(OC)ccc34)CC1)N=C[C@@H]1CCCN1C2=O` [Compound 5d, 7-Methoxy-8-{3-[4-(7-methoxy-8-methyl-2-oxo-2H-4-chromenyl)piperazino]propyl}-oxy-(11aS)-1,2,3,11a-5H-pyrrolo[2,1-c][1,4]benzodiazepin-5-one], for which the “Log10LC50 concentration in mol/L causing 50% lethality” value in the assay with Breast cancer cell lines is recorded as −4.11 mol/L; with Colon cancer cell lines, −4.87 mol/L; in [1], −4.23 mol/L; in assay [2], −4.00 mol/L; in [4], −4.00 mol/L; in the assay with Renal cancer cell lines it was −5.29 mol/L. The “Log10LC50 concentration in mol/L causing 50% lethality” value in assay [5] is reported as −4.34 mol/L; in the assay with CNS cancer cell lines, −4.11 mol/L; in [6], −4.22 mol/L. The “Log10LC50 mean graph midpoint (MG_MID)” value in [3] is −4.19. For the same compound, the “Log10GI50 mean graph midpoint (MG_MID)” value in assay [3] is listed as −5.68. Also, the “Log10TGI mean graph midpoint (MG_MID)” value in [3] is recorded as −4.86.

Consider `COc1cc2c(cc1OCCCCCN1CCN(c3cc(=O)oc4c(C)c(OC)ccc34)CC1)N=C[C@@H]1CCCN1C2=O` [Compound 5f, 7-Methoxy-8-{5-[4-(7-methoxy-8-methyl-2-oxo-2H-4-chromenyl)piperazino]pentyl}-oxy-(11aS)-1,2,3,11a-5H-pyrrolo[2,1-c][1,4]benzodiazepin-5-one], for which the “Log10LC50 concentration in mol/L causing 50% lethality” value is reported as −4.52 mol/L in the assay with Breast cancer cell lines; −5.41 mol/L in the assay on Colon cancer cell lines; −4.87 mol/L in assay [1]; −4.28 mol/L in assay [2]; −4.85 mol/L in [4]; −5.17 mol/L in the assay with Renal cancer cell lines. For the same compound, the “Log10LC50 concentration in mol/L causing 50% lethality” value is recorded as −5.29 mol/L in assay [5], −4.63 mol/L with CNS cancer cell lines and −5.39 mol/L in assay [6]. Moreover, the “Log10LC50 mean graph midpoint (MG_MID)” value in assay [3] is recorded as −4.96. For the same compound, the “Log10GI50 mean graph midpoint (MG_MID)” value in assay [3] is on record as −6.49. In addition, in [3], the “Log10TGI mean graph midpoint (MG_MID)” value is −5.85.
